In article PMC11809180, “RA-PR058, a novel ramalin derivative, reduces BACE1 expression and phosphorylation of tau in Alzheimer’s disease mouse models” (Animal Cells and Systems, 2025):

Experiments:
[1] = system: 3xTg-AD mice; assay: Elevated plus maze test in 3xTg-AD mice; format: in vivo, mouse; settings: 20 mg/kg oral daily for 1 month, vs vehicle-treated 3xTg-AD
Description: 3xTg-AD (B6;129-Tg(APPSwe,tauP301L)1Lfa Psen1^tm1Mpm/Mmjax) mice and their littermate wild-type (WT) mice were used in this study. Each experimental group consisted of 4–8 mice, with groups designated as WT, 3xTg-AD Vehicle, and 3xTg-AD RA-PR058. All mice were maintained in a 12-hour light/dark cycle with free access to food and water. 7-month-old age of mice were administered with 20 mg/kg of RA-PR058 orally once a day for 1 month followed by the elevated plus maze test. All animal experimental procedures were approved by the Institutional Animal Care and Use Committee of Sungkyunkwan University (SKKUIACUC2022-10-41-1).
The elevated plus maze (EPM) test is a widely used behavioral assay to assess anxiety-like behavior in mice (Walf and Frye [2007]). After administering RA-PR058 for 1 month, EPM was performed to evaluate its effects. Briefly, the mouse was placed in the center of the maze, facing an open arm, and allowed to explore freely for 5 minutes. Behavioral patterns were recorded and analyzed by EthoVision software (Noldus). Data were used to assess the effects of RA-PR058 on anxiety-like behavior compared to control mice.

[2] = system: cytochrome P450 (CYP) isoforms (CYP1A2, CYP2C9, CYP2C19, CYP2D6, and CYP3A); assay: Cytochrome P450 inhibition assay in human liver microsomes; format: in vitro ADME; settings: 10 μM RA-PR058, 20 minutes 37 ℃, with NADPH regenerating system
Description: Inhibitory potentials of RA-PR058 on cytochrome P450 (CYP) isoforms (CYP1A2, CYP2C9, CYP2C19, CYP2D6, and CYP3A) were evaluated. This assay was conducted by SPMED Co., Ltd (Republic of Korea). Human liver microsomes were incubated at 37 ℃ for 20 minutes with phosphate buffer (pH 7.4), each CYP substrate (for CYP1A2: phenacetin, CYP2C9: diclofenac, CYP2C19: S-mephenytoin, CYP2D6: dextromethorphan, CYP3A: midazolam), and 10 μM of RA-PR058 in the presence of an NADPH regenerating system. The reaction was terminated by adding an acetonitrile solution containing an internal standard. Following reaction termination, samples were centrifuged, and the supernatant was injected into an LC-MS/MS system to analyze the metabolites of each substrate drug.

For `Cl.N[C@@H](CCC(=O)NNc1ccccc1F)C(F)F` [RA-PR058, (S)-4-amino-5,5-difluoro-N'-(2-fluorophenyl)pentanehydrazide hydrochloride], the “Time spent in open arms of the EPM” value [1] was “significantly more time” and the “Decrease in mean control activity of CYP isoforms” value [2] was 12%.
